For data set [1], the target named is T1, acetylcholinesterase (AChE) (Electrophorus electricus, UniProt O42275).
T1 construct: purchased Sigma Aldrich C3389-2KU
As to the kind of experiment: biochemical. The following applies: triplicate. As for the experimental part: AChE inhibitory activity was evaluated as described previously with few modifications using a microtiter plate reader (Molecular Device, CA, United States) ([Hasan et al., 2005]). Initially, 100 mM of sodium phosphate buffer (140 µl) pH 8, 0.25 mM DTNB (10 µl), 0.5 mM of synthetic compounds dissolved in 20 µl of ethanol and AChE (20 µl) were mixed and incubated for 15–20 min at room temperature in a microtiter plate. Finally, 10 µl of substrate ACh (0.4 mM) was added and incubated at room temperature for 4–6 min. The reaction started after the addition of ACh was hydrolyzed by AChE in the presence of DTNB; a yellow-colored 5-thio-2-nitrobenzoate anion was formed, which indicates the reaction completion and was read at a wavelength of 412 nm. All experiments were performed in triplicate and were analyzed using the SoftMax Pro6.3 program (Molecular Device, CA, United States).
Percentage inhibition was calculated by % inhibition = (O.D control-O.D test well) / O.D control)×100.
IC50 was determined at various concentrations, and EZ-Fit EK was employed to calculate the IC50 values of the test compounds (Perrella Scientific Inc., Amherst, MA, United States).
In the current study, electric eel AChE was used in the laboratory to perform an AChE inhibitory assay, but for computational analysis, we used hAChE (4EY6). Therefore, homology modeling was performed to check the similarity between the electric eel and hAChE.

A short description of data set [2]: Viability of human neutrophils (WST-1 cytotoxicity test). It is filed as cell-based. The conditions noted are these: human neutrophils 1 × 10^7 cells/ml. How it is done: A cytotoxicity test was performed to determine the adverse effect of tested compounds on humans using neutrophil cells.
The absorbance is the mean of five experimental replicates.
The % viability of neutrophils was measured by the following formula: Percentage viability: […].

Data set [3] has as its system isolated rabbit jejunum, K+-induced contractions. As to the kind of experiment: Calcium antagonistic activity: relaxation of high K+ (80 mM) contracted isolated rabbit jejunum. The conditions noted are these: mean ± SEM, n = 3. As for the experimental part: (§1) The spasmolytic activity of the inhibitors was evaluated using isolated contracting rabbit jejunum ([Rahman et al., 2019]). Rabbits used in the current study were provided by Aga Khan Medical University, Karachi, Pakistan, weighing between 1.5 and 2.0 kg. The standard operating protocol has already been defined ([Choudhary et al., 2005]).
(§2) Calcium antagonistic activity was also performed and confirmed the relaxation of 80 mM K^+ produced contraction.
Schiff bases were also evaluated at high K^+ (80 mM) contracted isolated rabbit jejunum preparations for their spasmolytic effect, which was relaxed by all compounds (Table 3). […] Schiff bases represent a class of compounds showing a wide range of bioactivities, such as antimicrobial and anticancer activities. Schiff base compounds are the products of primary amines and condensation of carbonyl compounds, which are extensively investigated owing to their wide range of biomedical applications ([Sztanke et al., 2013]). […] The antispasmodic and Ca^+2 antagonist activity of Schiff base compounds was first reported and could be linked to the azomethine bond.

The target in data set [4] is T1, acetylcholinesterase (AChE). As to the kind of experiment: biochemical. Also noted: V max / V maxapp: unit not given here. The conditions noted are these: for K m app / V maxapp: in the presence of compound; for Ki: read-out: K i ± SEM; for K m: substrate ACh. How it is done: Enzyme-substrate (ES) is the complex of AChE and acetylcholine, while P represents the product formed after the reaction’s completion. Dissociation constant values were calculated through Dixon plots, their secondary replots, and the Lineweaver-Burk plot ([Khan et al., 2021]).
The values of K m, K i, and V max were determined from Dixon and Lineweaver-Burk plots using no linear regression equation.
GraFit software ([Khan et al., 2021]) was utilized for plotting graphs. The values of the correlation coefficients, slopes, intercepts, and their standard errors were determined by the linear regression equation using the same program.
During kinetic studies, the reaction rate was measured and the effect of different concentrations of a substrate on the enzyme was investigated. The kinetic study of enzymes helped to determine the catalytic mechanism of enzymes. […] The rate of reaction [V] was plotted against various substrate concentrations [S] at constant enzyme concentration. Initially, the rate of reaction [V] increases as substrate concentration increases, and at higher [S], the enzyme becomes saturated, and the rate of reaction reaches V max, which is referred to as the maximum rate of reaction.
The dissociation constant K i values were found using three different methods. Primarily, from the Lineweaver-Burk plot, which is the reciprocal rate of reaction (1/V) versus reciprocal of substrate concentration (1/S), helps to determine the effect of inhibitor on the values of K m and V max. Secondly, the Dixon plot is the plot between the reciprocal of initial velocities (1/V) versus different concentrations of the compound. Finally, from secondary replot, the slopes of each line versus various concentrations of all compounds. Kinetic studies were carried out to determine the inhibition type, which helps to specify the mechanism of action of enzyme inhibition and the inhibitor binding moieties.

The test system of data set [5] is isolated rabbit jejunum, spontaneous contractions. In words: Spasmolytic activity on spontaneously contracting isolated rabbit jejunum. The following applies: mean ± SEM, n = 3. As for the experimental part:
as §1, §2

T1 sequence (O42275 24-633): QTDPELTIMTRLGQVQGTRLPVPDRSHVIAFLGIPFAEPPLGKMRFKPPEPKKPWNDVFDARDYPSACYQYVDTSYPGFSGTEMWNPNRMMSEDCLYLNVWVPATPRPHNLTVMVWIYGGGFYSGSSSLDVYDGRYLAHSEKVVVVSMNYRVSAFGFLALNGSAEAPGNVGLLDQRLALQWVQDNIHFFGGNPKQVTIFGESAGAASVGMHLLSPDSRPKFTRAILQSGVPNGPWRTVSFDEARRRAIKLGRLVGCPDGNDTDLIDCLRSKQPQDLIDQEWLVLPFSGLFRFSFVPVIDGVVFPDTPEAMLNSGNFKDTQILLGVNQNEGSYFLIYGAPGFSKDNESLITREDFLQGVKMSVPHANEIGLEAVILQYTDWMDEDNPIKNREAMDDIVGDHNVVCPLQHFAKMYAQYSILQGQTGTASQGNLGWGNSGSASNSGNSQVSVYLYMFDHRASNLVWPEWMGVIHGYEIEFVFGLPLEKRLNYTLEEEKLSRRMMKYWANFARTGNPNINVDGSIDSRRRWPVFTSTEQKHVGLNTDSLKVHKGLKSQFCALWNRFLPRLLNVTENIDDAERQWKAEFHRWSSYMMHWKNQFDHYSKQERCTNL

`CCSc1nc2ccccc2n1CC(=O)N/N=C/c1ccc(Cl)cc1Cl` [Compound 10] showed an IC50 in data set [1] of 51.23 ± 0.2 µM. Moreover, in data set [2] (neutrophils isolated from human whole blood, Conc. 491.014 µM), the viability at 30 min, 491.014 µM was 90.1 ± 2.3%. Also, the “Effective Dose (ED50), spasmolytic effect, High K+” value (shortened to “Effective Dose (ED50) … High K+”) in data set [3] is 1,620.347 ± 0.04 µM. Further, in data set [4], the Type of inhibition entry is “Non-competitive”, the V max is 5.0, the K m app came to 0.12 mM and the V maxapp came to 2.1. In addition, in data set [4], the Ki came out at 17 ± 1.3 µM and the K m was 0.12 mM.

`CCSc1nc2ccccc2n1CC(=O)N/N=C\c1ccc(OC)cc1OC` [Compound 11] returned a concentration for half-maximal inhibition (IC50) in data set [1] of 37.64 ± 0.2 µM. This compound registered a viability at 30 min, 501.907 µM in data set [2] (neutrophils isolated from human whole blood, Conc. 501.907 µM) of 98 ± 1%. The “Effective Dose (ED50), spasmolytic effect, Spontaneous” value (shortened to “Effective Dose (ED50) … Spontaneous”) in data set [5] is 326.239 ± 0.01 µM. Besides, the “Effective Dose (ED50) … High K+” value in data set [3] is reported as 727.765 ± 0.09 µM. Also, in data set [4], the Type of inhibition entry is on record as “Non-competitive”, the V max is given as 5.0, the K m app is 0.12 mM and the V maxapp was found to be 2.6. In data set [4], the Ki was 14 ± 1.6 µM and the K m amounted to 0.12 mM.

As to `CCSc1nc2ccccc2n1CC(=O)N/N=C/c1cccc(O)c1O` [Compound 13], it took 50.58 ± 0.3 µM to reach half-maximal inhibition in data set [1] (IC50). In data set [2] (neutrophils isolated from human whole blood, Conc. 539.913 µM), this compound returned a viability at 30 min, 539.913 µM of 77.22 ± 0.5%. Further, the “Effective Dose (ED50) … Spontaneous” value in data set [5] was determined as 458.926 ± 0.01 µM. In addition, in data set [3], the “Effective Dose (ED50) … High K+” value worked out at 836.865 ± 0.05 µM. Besides, in data set [4], the Type of inhibition entry is listed as “Non-competitive”, the V max amounted to 5.0, the K m app is on record as 0.12 mM and the V maxapp is 2.3. Also, in data set [4], the Ki is 19 ± 1.7 µM and the K m is 0.12 mM.

In data set [1], `CCSc1nc2ccccc2n1CC(=O)N/N=C/c1c2ccccc2cc2ccccc12` [Compound 14] returned a 50% inhibitory concentration (IC50) of 51.23 ± 0.2 µM. Moreover, the viability at 30 min, 456.058 µM in data set [2] (neutrophils isolated from human whole blood, Conc. 456.058 µM) was found to be 66.6 ± 4%. Moreover, in data set [5], the “Effective Dose (ED50) … Spontaneous” value came to 592.876 ± 0.12 µM. Also, in data set [3], the “Effective Dose (ED50) … High K+” value is 980.526 ± 0.05 µM. In data set [4], the Type of inhibition result is “Non-competitive”, the K m app is 0.12 mM and the K m is listed as 0.12 mM.

In the case of `COc1ccc2c3c1O[C@H]1C[C@@H](O)C=C[C@@]31CCN(C)C2` [Galanthamine, reference compound], the viability at 30 min, 696.005 µM in data set [2] (Conc. 696.005 µM) was 96 ± 2%.

For orientation: IC50 means the concentration that gives 50% inhibition. For orientation: viability means a read-out of living cells in per cent, often relative to untreated cells.

Values taken from publication PMC9428891 (Frontiers in Pharmacology, 2022).
